Source: patent US10435361B2, “Kinase inhibitors” (Topivert Pharma Limited, priority 2013, dated 2019)
Read-outs that look alike come from different tables or passages of the source.

Experiments:
d-U937 cells = test: LPS-induced TNFα/IL-8 release in d-U937 cells; assay type: cell-based; details: Homo sapiens, dU937, assay (aa)
Method: U937 cells, a human monocytic cell line, are differentiated to macrophage-type cells by incubation with phorbol myristate acetate (PMA; 100 ng/mL) for 48 to 72 hr. Cells are pre-incubated with final concentrations of test compound for 2 hr and are then stimulated with 0.1 μg/mL of LPS (from E. Coli: 0111:B4, Sigma) for 4 hr. The supernatant is collected for determination of TNFα and IL-8 concentrations by sandwich ELISA (Duo-set, R&D systems). […] The relative 50% effective concentration (REC50) is determined from the resultant concentration-response curve. The inhibition of IL-8 production is calculated at each concentration of test compound by comparison with vehicle control.

PBMCs = test: Cell mitosis assay in PBMCs; assay type: cell-based; details: Homo sapiens, PBMC, 5 μg/mL
Procedure, shortened: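 Human PBMCs from healthy donors, density-gradient isolated, stimulated with 2% PHA 48 h, then exposed 20 h to test compounds; demecolcine 0.1 μg/mL added 2 h before harvest. Fixed/permeabilised cells stained for phospho-histone H3 and propidium iodide; mitotic lymphocytes counted by flow cytometry.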

Lewis rats = test: Endotoxin-induced uveitis in rats; assay type: in vivo; details: rats treated with intravitreal endotoxin LPS
Method: Male, Lewis rats (6-8 weeks old, Charles River UK Limited) are housed in cages of 3 at 19-21° C. with a 12 h light/dark cycle (07:00/19:00) and fed a standard diet of rodent chow and water ad libitum. Non-fasted rats are weighed, individually identified on the tail with a permanent marker, and receive a single intravitreal administration into the right vitreous humor (5 μL dose volume) of 100 ng/animal of LPS (Escherichia coli 0111:B4 prepared in PBS, Sigma Aldrich, UK) using a 32-gauge needle. Untreated rats are injected with PBS. Test compound, dexamethasone (Dex) or vehicle (20% hydroxypropyl-β-cyclodextrin, 0.1% HPMC, 0.01% Benzalkonium chloride, 0.05% EDTA, 0.7% NaCl in deionised water) are administered by the topical route onto the right eye (10 μL) of animals 30 minutes prior to LPS, at the time of LPS administration, and 1, 2 and 4 hours post LPS administration. Before administration, the solution or suspension to be administered is agitated for 5 minutes to ensure a uniform suspension. 6 hours after LPS dosing, animals are euthanized by overdose with pentobarbitone (i.v.). Following euthanasia, the right eye of each animal is enucleated and dissected into front (anterior) and back (posterior) sections around the lens. Each section is weighed and homogenised in 500 μL of sterile phosphate buffered saline followed by 20 minutes centrifugation at 12000 rpm at 4° C. The resulting supernatant is divided into 3 aliquots and stored at −80° C. until subsequent cytokine analysis by R&D DuoSet ELISA.

[1] = Plasma pharmacokinetics and total colon tissue distribution in mice, single oral administration; assay type: in vivo, C57BL/6 mice; details: male, C57BL/6, mouse, 5 mg/kg, read-out: Median plasma concentration
Method: Studies were conducted by Sai Life Sciences (Hinjewadi, Pune, India) to investigate the plasma pharmacokinetics and total colon tissue distribution of compounds of the invention. In particular, pharmacokinetic studies were carried out in: • male C57BL/6 mice, following a single oral administration; and • male Wistar rats following a single intravenous or oral administration.

[2] = Analysis of metabolites after incubation with hepatocytes; assay type: in vitro ADME; details: rat, Cynomolgus macaque, human hepatocytes
Method: Studies were conducted by BioFocus (Saffron Walden, UK) to determine the metabolic fate of the compound of Example 16 following incubation with rat, Cynomolgus macaque or human hepatocytes.
Separate incubations (n=3) of the compound of Example 16 (10 μM initial concentration) or DMSO control, were performed with cryopreserved hepatocytes from each species (0.5 million cell/mL) at 37° C. for 0, 60 and 90 minutes before termination of reactions and compound extraction with acetonitrile. Sample replicates were pooled prior to analysis.
Potential metabolites were identified using time-of-flight (TOF) and triple quadruple (TQ) mass spectrometers.

Row | Compound | IC50 (d-U937 cells; method: relative to 10 μg/mL BIRB796 (REC50), read-out: IC50 Values for Inhibition of Cytokine Release dU937 cells TNFα) [nM] | IC50 (d-U937 cells; read-out: IC50 Values for Inhibition of Cytokine Release dU937 cells IL-8) [nM] | inhibition at 5 µg/mL (PBMCs) [%] | cytokine levels in the anterior and posterior segments of the eyes (Lewis rats) | concentration at 1 h [1] [ng/mL] | concentration at 2 h [1] [ng/mL] | concentration at 4 h [1] [ng/mL] | concentration at 6 h [1] [ng/mL] | concentration at 8 h [1] [ng/mL] | concentration at 12 h [1] [ng/mL] | concentration at 24 h [1] [ng/mL] | number of metabolites formed in hepatocytes ([2]; 10 μM, 0, 60 and 90 minutes) | metabolism at the naphthalene moiety ([2]; 10 μM)
1 | COCCOCCOCCOc1cc(Nc2nccc(Oc3ccc(NC(=O)Nc4cc(C(C)(C)C)cc(NS(C)(=O)=O)c4OC)c4ccccc34)n2)cc(OC)c1 [Example 4, N-(5-(tert-Butyl)-2-methoxy-3-(3-(4-((2-((3-methoxy-5-(2-(2-(2-methoxyethoxy)ethoxy)-ethoxy)phenyl)amino)pyrimidin-4-yl)oxy)naphthalen-1-yl)ureido)phenyl)methanesulfonamide] | 1 | 0.8 | 43 | significantly reduced | – | – | – | – | – | – | – | – | –
2 | C#Cc1cc(Nc2nccc(Oc3ccc(NC(=O)Nc4cc(C(C)(C)C)cc(NS(C)(=O)=O)c4OC)c4ccccc34)n2)cc(C(=O)NCCOCCOCCOC)c1 [Example 16, 3-((4-((4-(3-(5-(tert-Butyl)-2-methoxy-3-(methylsulfonamido)phenyl)ureido)naphthalen-1-yl)oxy)pyrimidin-2-yl)amino)-5-ethynyl-N-(2-(2-(2-methoxyethoxy)ethoxy)ethyl)benzamide] | – | – | 20.5 | – | 0 | 0 | 0 | 0 | 0 | 0 | 0 | 9 | no products were noted that could be connected to metabolism at the naphthalene moiety
3 | COc1cc(Nc2cc(Oc3ccc(NC(=O)Nc4cc(C(C)(C)C)cc(NS(C)(=O)=O)c4OC)c4ccccc34)ccn2)cc(C(=O)NCCN2CCOCC2)c1 [Example 27, 3-((4-((4-(3-(5-(tert-Butyl)-2-methoxy-3-(methylsulfonamido)phenyl)ureido)naphthalen-1-yl)oxy)pyridin-2-yl)amino)-5-methoxy-N-(2-morpholinoethyl)benzamide] | – | – | 49.8 | significantly reduced | – | – | – | – | – | – | – | – | –
